Data taken from publication PMC8620685, “Effect of Selected Silyl Groups on the Anticancer Activity of 3,4-Dibromo-5-Hydroxy-Furan-2(5H)-One Derivatives” (Pharmaceuticals, 2021).

Tested on: survivin
Experiment: Human Apoptosis Proteome Profiler array, survivin
Format: cell-based
Details: HCT-116, 1 h exposure, 2 × IC50
From the text: To explore in detail the molecular mechanism of apoptosis induction by compounds 3b and 3c, we employed Human Apoptosis Proteome Profiler arrays that allow quantification of apoptosis-related biomarkers (Figure 3C). […] Collectively, it can be concluded that silyl derivative 3b promotes cell death in HCT 116 cells by the alteration of expression levels of survivin and activation of caspase-3.
The Human Apoptosis Array Kit (R&D Systems, Abingdon, UK) was used to determine the levels of expression of apoptosis-related proteins. 2.5 × 10^5 HCT 116 wt cells were seeded on 100 mm dishes (Nunc, ThermoFisher, Waltham, MA, USA) and allowed to attach for 24 h. Then the medium was replaced with tested compounds at a concentration corresponding 2 × IC50 value and the cells were incubated in 37 °C. After 60 min the cells were lysed and the lysates were clarified by centrifugation for 30 min at 14,000× g. The total protein concentration was measured using the Protein Quantification Kit-Rapid (Sigma-Aldrich, Taufkirchen, Germany) according to the manufacturer’s instruction. The next steps followed instructions from the manufacturer of the Human Apoptosis Array Kit. The membranes were then scanned in the G:Box trans illuminator (Syngene, Cambridge, UK) and the protein expression levels were quantified by densitometric analysis using ImageJ software.

SMILES: CC(C)[Si](OC1OC(=O)C(Br)=C1Br)(C(C)C)C(C)C (stereo not shown) [Compound 3b, 3,4-Dibromo-5-(triisopropylsilyloxy)-furan-2(5H)-one]
- survivin expression: down-regulation of survivin
